Measurements: US7541021B2, “Process for preparation of a sterile suspension of corticosteroid particles for the administration by inhalation” (Chiesi Farmaceutici S.p.A., priority 2002, dated 2009)

Columns and labels:
[1] = Particle size of micronised BDP by Malvern apparatus; format: physicochemical; conditions: micronised powder
Procedure: The dimensional characteristics of the particles were also evaluated by using a Malvern apparatus. This type of test exploits the diffraction of a laser beam by the particles to determine the size distribution of the particles in suspension. The parameter considered is the median volumetric diameter in μm of 10%, 50% and 90% of the particles, expressed as d(v,0.1), d(v,0.5) and d(v,0.9) respectively, which is determined by assuming that the particles have a geometrical shape equivalent to a sphere. Advantageously, in the suspension formulation of the invention, the d(v,0.9) after sonication is less than 8 μm and the d(v,0.5) is comprised between 2 and 3.5 μm.

[2] = Apparent volumes and densities (European Pharmacopoeia 2.9.15) of micronised BDP powder; format: physicochemical; conditions: for dv, apparent density before settling: 100 g in 250 ml cylinder; for ds, apparent density after packing: after compacting
Procedure: The apparent volumes and densities were measured according to the European Pharmacopoeia, 4th edition, paragraph 2.9.15. 100 g of the test substance is introduced into a dry 250 ml cylinder without compacting it. The unsettled apparent volume (Vo) is read off, then 10, 500 and 1250 taps are performed, and volumes (V10, V500 and V1250) are read. If the difference between V500 and V1250 is greater than 2 ml, 1250 further taps are performed (V2500).

[3] = Elimination of 17-BMP after nebulisation of aqueous BDP suspensions versus pressurised aerosol suspensions; format: in vivo; conditions: after aqueous suspensions of BDP by nebulisation, compared with suspension formulations as pressurised aerosols
Text: It has also been observed that due to the formation of the monoester in the lung cells, the elimination half-life and the mean residence time of 17-BMP are longer after the administration of aqueous suspensions of BDP by nebulisation than formulations in suspension administered in the form of pressurised aerosols.

[4] = test system: microsomes of human lung cells; experiment: Formation of fatty acid esters of 17-BMP in lung microsomes; format: in vitro ADME

Particle size d (v, 0.1) [1] [μm]	Particle size d (v, 0.5) [1] [μm]	Particle size d (v, 0.9) [1] [μm]	Cs, packing capacity (difference between V10 and V500) [2] [mL]	dv, apparent density before settling [2] [g/mL]	ds, apparent density after packing [2] [g/mL]	elimination half-life [3]	mean residence time [3]	Formation of stable esters with long-chain fatty acids such as oleic acid [4]	SMILES
0.48	1.81	5.73	12	0.32	0.42	–	–	–	CCC(=O)OCC(=O)[C@@]1(OC(=O)CC)[C@@H](C)C[C@H]2[C@@H]3CCC4=CC(=O)C=C[C@]4(C)[C@@]3(Cl)[C@@H](O)C[C@@]21C [Irradiated BDP, beclomethasone dipropionate]
–	–	–	–	–	–	longer	longer	are formed	CCC(=O)O[C@]1(C(=O)CO)[C@@H](C)C[C@H]2[C@@H]3CCC4=CC(=O)C=C[C@]4(C)[C@@]3(Cl)[C@@H](O)C[C@@]21C [17-BMP, beclomethasone-17-monopropionate]
0.49	1.91	5.98	16	0.21	0.27	–	–	–	CCC(=O)OCC(=O)[C@@]1(OC(=O)CC)[C@@H](C)C[C@H]2[C@@H]3CCC4=CC(=O)C=C[C@]4(C)[C@@]3(Cl)[C@@H](O)C[C@@]21C [Non-irradiated BDP, beclomethasone dipropionate]
